According to the supplement of paper PMC12325586:

Test system: MIA PaCa-2
Description: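 MIA PaCa-2 Tet-on shOFD1 pancreatic cancer cells (2000 cells/well, 96-well) were treated with Selleck FDA-approved library compounds at 0, 1, 5, 10, 25 and 50 µM, with extra concentrations added where needed, for 72 h at 37 °C. Knockdown wells also received 100 ng/mL doxycycline; control wells received DMSO without doxycycline. Viability was read by CCK-8 absorbance at 450 nm and normalised to DMSO control wells. IC50 was fitted in GraphPad Prism as a 4-parameter logistic with bottom fixed at 0 and top fixed at 1; at least 3 technical replicate wells per condition.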

[1] = OFD1 knockdown: no (no doxycycline)
[2] = OFD1 knockdown: yes (Tet-on shOFD1, 100 ng/mL doxycycline)

Row | SMILES | IC50 cell viability [1] [µM] | IC50 cell viability [2] [µM]
1 | COc1cccc2c1C(=O)c1c(O)c3c(c(O)c1C2=O)CC(O)(C(=O)CO)CC3OC1CC(N)C(O)C(C)O1 (configuration not stated) [S1208] | 1.85 | 1.52
2 | Cn1c(CCCC(=O)O)nc2cc(N(CCCl)CCCl)ccc21 [S1212] | 15.8 | 17
3 | Cc1c(N)nc(C(CC(N)=O)NCC(N)C(N)=O)nc1C(=O)NC(C(=O)NC(C)C(O)C(C)C(=O)NC(C(=O)NCCc1nc(-c2nc(C(=O)NCCC[S+](C)C)cs2)cs1)C(C)O)C(O[C@@H]1O[C@@H](CO)[C@@H](O)[C@H](O)[C@@H]1O[C@H]1O[C@H](CO)[C@@H](O)[C@H](OC(N)=O)[C@@H]1O)c1cnc[nH]1 (some centres not stated) [S1214] | 1.84 | 1.69
4 | Nc1nc(Cl)nc2c1ncn2[C@@H]1O[C@H](CO)[C@@H](O)[C@@H]1F [S1218] | 0.55 | 0.53
5 | CN(C)/N=N/c1[nH]cnc1C(N)=O [S1221] | 52.8 | 51.9
6 | O=C(O)C(=O)O.[NH-][C@@H]1CCCC[C@H]1[NH-].[Pt+2] [S1224] | 60.3 | 57.3
7 | CC[C@@]1(O)C(=O)OCc2c1cc1n(c2=O)Cc2cc3c(CN(C)C)c(O)ccc3nc2-1 [S1231] | 54.5 | 49.8
8 | S=C(NCc1ccc2c(c1)OCO2)N1CCN(c2ncnc3c2oc2ccccc23)CC1 [S1244] | 51.5 | 51.9
9 | CNC(=O)c1ccc(N2C(=S)N(c3ccc(C#N)c(C(F)(F)F)c3)C(=O)C2(C)C)cc1F [S1250] | 29.5 | 27.8
10 | CCCS(=O)(=O)Nc1ccc(F)c(C(=O)c2c[nH]c3ncc(-c4ccc(Cl)cc4)cc23)c1F [S1267] | 17 | 17.6
11 | CCCCCCNC(=O)n1cc(F)c(=O)[nH]c1=O [S1289] | 2.36 | 2.4
12 | O=c1[nH]c(=O)n(C2CCCO2)cc1F (configuration not stated) [S1300] | 48.4 | 43.1
13 | O=P1(NCCCl)OCCCN1CCCl (configuration not stated) [S1302] | 53 | 55.2
14 | CN(N=O)C(=O)NC1C(O)OC(CO)C(O)C1O (configuration not stated) [S1312] | 30.1 | 30.4
15 | COc1cc2nc(N3CCN(C(=O)C4COc5ccccc5O4)CC3)nc(N)c2cc1OC (configuration not stated) [S1324] | 18.1 | 17.6
16 | C/C(=C\c1csc(C)n1)[C@@H]1C[C@@H]2O[C@]2(C)CCC[C@H](C)[C@H](O)[C@@H](C)C(=O)C(C)(C)[C@@H](O)CC(=O)O1 [S1364] | 0.76 | 0.87
17 | N#CC[C@H](C1CCCC1)n1cc(-c2ncnc3[nH]ccc23)cn1 [S1378] | 70.3 | 68.4
18 | CC1=C(/C=C/C(C)=C/C=C/C(C)=C\C(=O)O)C(C)(C)CCC1 [S1379] | 12.2 | 11.5
19 | COc1c(C)c2c(c(O)c1C/C=C(\C)CCC(=O)OCCN1CCOCC1)C(=O)OC2 [S1501] | 11.9 | 11.5
20 | COc1cc(Nc2nc3ccccc3nc2NS(=O)(=O)c2ccc(NC(=O)c3ccc(C)c(OC)c3)cc2)cc(OC)c1 [S1523] | 47.6 | 45.5
21 | CC(C)(C)c1cc(NC(=O)Nc2ccc(-c3cn4c(n3)sc3cc(OCCN5CCOCC5)ccc34)cc2)no1 [S1526] | 13.8 | 14.4
22 | Cc1nc(-c2ccc(OCC(C)C)c(C#N)c2)sc1C(=O)O [S1547] | 12.4 | 12.3
23 | CCOc1ccc(Cc2cc([C@@H]3O[C@H](CO)[C@@H](O)[C@H](O)[C@H]3O)ccc2Cl)cc1 [S1548] | 16.5 | 17
24 | OC(CNCC(O)C1CCc2cc(F)ccc2O1)C1CCc2cc(F)ccc2O1 (configuration not stated) [S1549] | 28.8 | 27.2
25 | CCOc1nc2cccc(C(=O)O)c2n1Cc1ccc(-c2ccccc2-c2nnn[nH]2)cc1 [S1578] | 1.56 | 1.3
26 | CC1(C)O[C@@H]2C[C@H]3[C@@H]4CCC5=CC(=O)C=C[C@]5(C)[C@@]4(F)[C@@H](O)C[C@]3(C)[C@]2(C(=O)CO)O1 [S1628] | 23 | 22.1
27 | Oc1ncnc2[nH]ncc12 [S1630] | 13.5 | 13.3
28 | CC1=C(/C=C/C(C)=C/C=C/C(C)=C/C(=O)O)C(C)(C)CCC1 [S1653] | 13.6 | 14.3
29 | CCC1(c2ccc(N)cc2)CCC(=O)NC1=O (configuration not stated) [S1672] | 23.6 | 22.2

Other lines, results leading:

Row | IC50 cell viability [1] [µM] | IC50 cell viability [2] [µM] | SMILES
30 | 3.34 | 2.54 | O=c1[nH]cc(F)c(=O)[nH]1 [S1209]
31 | 0.47 | 0.39 | CN(Cc1cnc2nc(N)nc(N)c2n1)c1ccc(C(=O)N[C@@H](CCC(=O)O)C(=O)O)cc1 [S1210]
32 | 1.66 | 1.5 | COc1nc(N)nc2c1ncn2[C@@H]1O[C@H](CO)[C@@H](O)[C@@H]1O [S1213]
33 | 0.63 | 0.58 | COc1cccc2c1C(=O)c1c(O)c3c(c(O)c1C2=O)C[C@@](O)(C(=O)CO)C[C@@H]3O[C@H]1C[C@H](N)[C@@H](O)[C@H](C)O1 [S1223]
34 | 2.31 | 2.03 | COc1cc([C@@H]2c3cc4c(cc3[C@@H](O[C@@H]3O[C@@H]5CO[C@@H](C)O[C@H]5[C@H](O)[C@H]3O)[C@H]3COC(=O)[C@H]23)OCO4)cc(OC)c1O [S1225]
35 | 8.3 | 8.74 | O=C(c1ccc(OCCN2CCCCC2)cc1)c1c(-c2ccc(O)cc2)sc2cc(O)ccc12 [S1227]
36 | 2.26 | 1.95 | Nc1nc(F)nc2c1ncn2[C@@H]1O[C@H](COP(=O)(O)O)[C@@H](O)[C@@H]1O [S1229]
37 | 12.5 | 12.4 | N#Cc1ccc(C(c2ccc(C#N)cc2)n2cncn2)cc1 [S1235]
38 | 12 | 11.3 | Cn1nnc2c(C(N)=O)ncn2c1=O [S1237]
39 | 20.9 | 21.3 | CC[C@]1(O)C[C@H]2CN(CCc3c([nH]c4ccccc34)[C@@](C(=O)OC)(c3cc4c(cc3OC)N(C=O)[C@H]3[C@@](O)(C(=O)OC)[C@H](OC(C)=O)[C@]5(CC)C=CCN6CC[C@]43[C@@H]65)C2)C1 [S1241]
40 | 25.2 | 24.3 | Cc1ccc(-c2cc(C(F)(F)F)nn2-c2ccc(S(N)(=O)=O)cc2)cc1 [S1261]
41 | 2.56 | 2.43 | CN(C)c1nc(N(C)C)nc(N(C)C)n1 [S1278]
42 | 11.5 | 11.4 | O=c1[nH]c(=O)n([C@H]2C[C@H](O)[C@@H](CO)O2)cc1F [S1299]
43 | 2.01 | 1.81 | CC(=O)O[C@]1(C(C)=O)CC[C@H]2[C@@H]3C=C(C)C4=CC(=O)CC[C@]4(C)[C@H]3CC[C@@]21C [S1304]
44 | 27.5 | 27.7 | S=c1[nH]cnc2nc[nH]c12 [S1305]
45 | 8.52 | 7.75 | C[C@@H]1C[C@H]2[C@@H]3CCC4=CC(=O)C=C[C@]4(C)[C@@]3(F)[C@@H](O)C[C@]2(C)[C@@]1(O)C(=O)CO [S1322]

Row | IC50 cell viability [1] [µM] | IC50 cell viability [2] [µM] | SMILES
46 | 2.53 | 2.01 | COc1cc(OC)c(/C=C/S(=O)(=O)Cc2ccc(OC)c(NCC(=O)O)c2)c(OC)c1 [S1362]
47 | 53.8 | 56.4 | CCOc1cc2ncc(C#N)c(Nc3ccc(F)c(Cl)c3)c2cc1NC(=O)/C=C/CN(C)C [S1392]
48 | 1.44 | 1.4 | Cc1ccc(C(=O)N(CCCN)[C@@H](c2nc3cc(Cl)ccc3c(=O)n2Cc2ccccc2)C(C)C)cc1 [S1452]
49 | 70.2 | 64.3 | COc1nc(C)cnc1NS(=O)(=O)c1cccnc1-c1ccc(-c2nnco2)cc1 [S1456]
50 | 46.5 | 45.7 | C=C1/C(=C\C=C2/CCC[C@]3(C)[C@@H]([C@H](C)/C=C/[C@H](C)C(C)C)CC[C@@H]23)C[C@@H](O)C[C@@H]1O [S1467]
51 | 3.75 | 3.86 | Cc1ccc(C(=O)Nc2ccc(CN3CCN(C)CC3)c(C(F)(F)F)c2)cc1C#Cc1cnc2cccnn12 [S1490]
52 | 59 | 54.2 | Nc1nc(F)nc2c1ncn2[C@@H]1O[C@H](CO)[C@@H](O)[C@@H]1O [S1491]
53 | 4.04 | 3.46 | CC(C)(C)Cn1c(N)nc2ccc(-c3[nH]c(C(C)(C)C)nc3-c3ccc(F)cc3)nc21 [S1494]
54 | 23.7 | 23.5 | CN1CC(=O)N2[C@H](c3ccc4c(c3)OCO4)c3[nH]c4ccccc4c3C[C@@H]2C1=O [S1512]
55 | 5.47 | 5.05 | CCCCc1nc2cc(/C=C/C(=O)NO)ccc2n1CCN(CC)CC [S1515]
56 | 70.7 | 65 | NC(=O)C1CCCc2c1[nH]c1ccc(Cl)cc21 (configuration not stated) [S1541]
57 | 26.3 | 28.8 | COc1ccc(-c2nc3cc(C4=NNC(=O)CC4C)ccc3[nH]2)cc1 (configuration not stated) [S1550]
58 | 15.7 | 15.5 | Nc1cccc2c1C(=O)N(C1CCC(=O)NC1=O)C2=O (configuration not stated) [S1567]
59 | 77.2 | 83.8 | Cc1ccc(-n2nc(C(C)(C)C)cc2NC(=O)Nc2ccc(OCCN3CCOCC3)c3ccccc23)cc1 [S1574]
60 | 3.33 | 3.62 | O=C1[C@H](CC[C@H](O)c2ccc(F)cc2)[C@@H](c2ccc(O)cc2)N1c1ccc(F)cc1 [S1655]
61 | 38.1 | 37.8 | C[C@]12CC[C@@H]3c4ccc(O)cc4CC[C@H]3[C@@H]1CCC2=O [S1665]
